These compounds were tested against Human factor D (Homo sapiens (Human), UniProt P00746) (assay: Human Factor D Assay). Conditions: Human factor D purified from human serum, 80 nM; substrate Z-L-Lys-SBzl with DTNB; assay of Example 8.
Assay type: biochemical
Description: The assay of Example 8 was used to determine the IC50's of the compounds. Other standard factor D inhibition assays are also available.
Example 8. Human Factor D Assay
Human factor D (purified from human serum, Complement Technology, Inc.) at 80 nM final concentration is incubated with test compound at various concentrations for 5 minutes at room temperature in 50 mM Tris, 1M NaCl, pH 7.5. A synthetic substrate Z-L-Lys-SBzl and DTNB (Ellman's reagent) are added to final concentrations of 100 µM each. The increase in color is recorded at OD405 nm in a microplate in kinetic mode over 30 minutes with 30 second time points in a […]. IC50 values are calculated by non-linear regression from the percentage of inhibition of complement factor D activity as a function of test compound concentration.

Sequence of Human factor D (P00746 26-253): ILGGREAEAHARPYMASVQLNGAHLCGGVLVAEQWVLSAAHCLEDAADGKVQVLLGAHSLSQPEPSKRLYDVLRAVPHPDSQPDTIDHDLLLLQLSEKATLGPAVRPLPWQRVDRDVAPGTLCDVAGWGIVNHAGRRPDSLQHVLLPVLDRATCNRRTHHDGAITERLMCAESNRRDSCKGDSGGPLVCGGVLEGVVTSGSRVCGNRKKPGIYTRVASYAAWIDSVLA

Row | SMILES | IC50 [nM]
1 | CC(=O)c1cn(CC(=O)N2C[C@H](F)C[C@H]2C(=O)Nc2ccc(OC(F)(F)F)c(F)c2)c2cc(OCP(=O)(O)O)ccc12 [Compound 25, (3-acetyl-1-(2-((2S,4R)-4-fluoro-2-(3-fluoro-4-(trifluoromethoxy)phen-ylcarbamoyl)pyrrolidin-1-yl)-2-oxoethyl)-1H-indol-6-yloxy)methylphosphonic acid] | < 1000
2 | CC(=O)c1cn(CC(=O)N2C[C@H](F)C[C@H]2C(=O)Nc2cccc(Oc3ccccc3)c2)c2cc(OCP(=O)(O)O)ccc12 [Compound 26, (3-acetyl-1-(2-((2S,4R)-4-fluoro-2-(3-phenoxy-phenylcarbamoyl)pyrrolidin-1-yl)-2-oxoethyl)-1H-indol-6-yloxy)methylphosphonic acid] | < 1000
3 | CC(=O)c1cn(CC(=O)N2C[C@H](F)C[C@H]2C(=O)Nc2cccc(OC(F)(F)F)c2F)c2cc(OCP(=O)(O)O)ccc12 [Compound 27, (3-acetyl-1-(2-((2S,4R)-4-fluoro-2-(2-fluoro-3-(trifluoromethoxy)phenyl-carbamoyl)pyrrolidin-1-yl)-2-oxoethyl)-1H-indol-6-yloxy)methylphosphonic acid] | < 1000
4 | CC(C)(C)NS(=O)(=O)COc1ccc2c(C(N)=O)nn(CC(=O)N3C[C@H](F)C[C@H]3C(=O)Nc3cccc(-c4ccccc4Cl)c3F)c2c1 [Compound 28, 6-(N-tert-butylsulfamoylmethoxy)-1-(2-((2S,4R)-2-(2′-chloro-2-fluorobiphenyl-3-ylcarbamoyl)-4-fluoropyrrolidin-1-yl)-2-oxoethyl)-1H-indazole-3-carboxamide] | < 1000
5 | NC(=O)c1nn(CC(=O)N2C[C@H](F)C[C@H]2C(=O)Nc2cccc(-c3ccccc3Cl)c2F)c2cc(OCS(N)(=O)=O)ccc12 [Compound 29, 1-(2-((2S,4R)-2-(2′-chloro-2-fluorobiphenyl-3-ylcarbamoyl)-4-fluoropyrrolidin-1-yl)-2-oxoethyl)-6-(sulfamoylmethoxy)-1H-indazole-3-carboxamide] | < 1000
6 | CC(=O)c1cn(CC(=O)N2C[C@H](F)C[C@H]2C(=O)NCc2cccc(Cl)c2F)c2cc(Oc3ncccn3)ccc12 [Compound 30, (2S,4R)-1-(2-(3-acetyl-6-(pyrimidin-2-yloxy)-1H-indol-1-yl)acetyl)-N-(3-chloro-2-fluorobenzyl)-4-fluoropyrrolidine-2-carboxamide] | < 1000
7 | NC(=O)c1nn(CC(=O)N2C[C@H](F)C[C@H]2C(=O)Nc2cccc(-c3ccccc3Cl)c2F)c2ccc(Oc3cncnc3)cc12 [Compound 31, 1-(2-((2S,4R)-2-(2′-chloro-2-fluorobiphenyl-3-ylcarbamoyl)-4-fluoropyrrolidin-1-yl)-2-oxoethyl)-5-(pyrimidin-5-yloxy)-1H-indazole-3-carboxamide] | < 1000
8 | CC(=O)c1cn(CC(=O)N2C[C@H](F)C[C@H]2C(=O)Nc2cccc(-c3ccccc3Cl)c2F)c2cc(Oc3ncccn3)ccc12 [Compound 32, (2S,4R)-1-(2-(3-acetyl-6-(pyrimidin-2-yloxy)-1H-indol-1-yl)acetyl)-N-(2′-chloro-2-fluorobiphenyl-3-yl)-4-fluoropyrrolidine-2-carboxamide] | < 1000
9 | CC(=O)c1cn(CC(=O)N2C[C@H](F)C[C@H]2C(=O)Nc2cccc(-c3ccccc3Cl)c2F)c2ccc(Oc3ncc(Br)cn3)cc12 [Compound 33, (2S,4R)-1-(2-(3-acetyl-5-(5-bromopyrimidin-2-yloxy)-1H-indol-1-yl)acetyl)-N-(2′-chloro-2-fluorobiphenyl-3-yl)-4-fluoropyrrolidine-2-carboxamide] | < 1000
10 | CC(=O)c1cn(CC(=O)N2C[C@H](F)C[C@H]2C(=O)Nc2cccc(-c3ccccc3Cl)c2F)c2ccc(Oc3cnc(C#N)nc3)cc12 [Compound 36, (2S,4R)-1-(2-(3-acetyl-5-(2-cyanopyrimidin-5-yloxy)-1H-indol-1-yl)acetyl)-N-(2′-chloro-2-fluorobiphenyl-3-yl)-4-fluoropyrrolidine-2-carboxamide] | < 1000
11 | CC(=O)c1cn(CC(=O)N2C[C@H](F)C[C@H]2C(=O)Nc2cccc(-c3ccccc3Cl)c2F)c2ccc(Oc3ncc(F)cn3)cc12 [Compound 37, (2S,4R)-1-(2-(3-acetyl-5-(5-fluoropyrimidin-2-yloxy)-1H-indol-1-yl)acetyl)-N-(2′-chloro-2-fluorobiphenyl-3-yl)-4-fluoropyrrolidine-2-carboxamide] | < 1000
12 | CC(=O)c1cn(CC(=O)N2C[C@H](F)C[C@H]2C(=O)Nc2cccc(-c3ccccc3Cl)c2F)c2ccc(Oc3ncccn3)cc12 [Compound 38, (2S,4R)-1-(2-(3-acetyl-5-(pyrimidin-2-yloxy)-1H-indol-1-yl)acetyl)-N-(2′-chloro-2-fluorobiphenyl-3-yl)-4-fluoropyrrolidine-2-carboxamide] | < 1000
13 | CC(=O)c1cn(CC(=O)N2C[C@H](F)C[C@H]2C(=O)Nc2cccc(Br)n2)c2ccc(Oc3ncccn3)cc12 [Compound 39, (2S,4R)-1-(2-(3-acetyl-5-(pyrimidin-2-yloxy)-1H-indol-1-yl)acetyl)-N-(6-bromopyridin-2-yl)-4-fluoropyrrolidine-2-carboxamide] | < 1000
14 | CC(=O)c1cn(CC(=O)N2C[C@H](F)C[C@H]2C(=O)Nc2cccc(-c3ccccc3Cl)c2F)c2ccc(Oc3ncc(C)cn3)cc12 [Compound 40, (2S,4R)-1-(2-(3-acetyl-5-(5-methylpyrimidin-2-yloxy)-1H-indol-1-yl)acetyl)-N-(2′-chloro-2-fluorobiphenyl-3-yl)-4-fluoropyrrolidine-2-carboxamide] | < 1000
15 | CC(=O)c1cn(CC(=O)N2C[C@H](F)C[C@H]2C(=O)Nc2cccc(Br)n2)c2ccc(Oc3ncc(C)cn3)cc12 [Compound 41, (2S,4R)-1-(2-(3-acetyl-5-(5-methylpyrimidin-2-yloxy)-1H-indol-1-yl)acetyl)-N-(6-bromopyridin-2-yl)-4-fluoropyrrolidine-2-carboxamide] | < 1000
16 | CC(=O)c1cn(CC(=O)N2C[C@H](F)C[C@H]2C(=O)Nc2cccc(-c3ccccc3Cl)c2F)c2ccc(Oc3ncc(C(F)(F)F)cn3)cc12 [Compound 42, (2S,4R)-1-(2-(3-acetyl-5-(5-(trifluoromethyl)pyrimidin-2-yloxy)-1H-indol-1-yl)acetyl)-N-(2′-chloro-2-fluorobiphenyl-3-yl)-4-fluoropyrrolidine-2-carboxamide] | < 1000
17 | CC(=O)c1cn(CC(=O)N2C[C@H](F)C[C@H]2C(=O)Nc2cccc(-c3ccccc3Cl)c2F)c2ccc(Oc3cnc(Cl)nc3)cc12 [Compound 43, (2S,4R)-1-(2-(3-acetyl-5-(2-chloropyrimidin-5-yloxy)-1H-indol-1-yl)acetyl)-N-(2′-chloro-2-fluorobiphenyl-3-yl)-4-fluoropyrrolidine-2-carboxamide] | < 1000
